# Target: T1, FZD8 (frizzled-8) cysteine-rich domain, FZD8CRD (Mus musculus, UniProt Q61091)
# T1 construct: Extracellular CRD A28-R153, pHL-Avi3, BirA-biotinylated, secreted from HEK293T, immobilized on streptavidin SPR chip
# T1 sequence (Q61091 28-153): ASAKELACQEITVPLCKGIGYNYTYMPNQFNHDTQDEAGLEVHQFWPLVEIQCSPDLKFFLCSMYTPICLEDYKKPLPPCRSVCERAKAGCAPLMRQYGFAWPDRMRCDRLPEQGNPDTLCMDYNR
# Experiment: crystal structure at […] Å (N49E/N152E construct); SPR Kd on biotinylated FZD8CRD (A28-R153)
# Format: binding
compound,measurement,value
"NC(=O)N1c2ccccc2C=Cc2ccccc21 [compound 79, 5H-dibenzo[b,f]azepine-5-carboxamide]",Kd,17 µM
